The structures appear in SMILES notation.

The nature of series [1]: Drug interaction studies: pharmacokinetics of co-administered drug in the presence of elagolix. Conditions: for changes in exposures when co-administered with elagolix: elagolix 300 mg twice daily. In kind it is in vivo, human. The method, then: Drug interaction studies were performed with elagolix and other drugs likely to be co-administered and with drugs commonly used as probes for pharmacokinetic interactions. Tables 7 and 8 summarize the pharmacokinetic effects when elagolix was co-administered with these drugs.

The next series in a line: clinical. The settings on record: human, in vivo. The method, then: Subjects: Twenty adult premenopausal female subjects were enrolled in the study.
Beginning on Day 3, subjects received elagolix 300 mg BID under fasting conditions every day until Day 10. […] Doses of elagolix were separated by approximately 12 hours.
Testing was performed for CYP2C19 variants including the *2 (rs4244285), *3 (rs4986893), *4 (rs28399504), *8 (rs41291556), *10 (rs6413438) and *12 (rs55640102) alleles.
Safety was evaluated during confinement and at each study visit through adverse event monitoring, vital signs measurements, physical examinations, and routine laboratory tests.

The nature of series [2]: Drug interactions: effects of ORIAHNN on plasma exposure of other drugs. Conditions: co-administration of ORIAHNN.
The next series relates to CYP3A. Nature of the series: Substrate of / metabolism by CYP3A. In kind it is in vitro ADME.
Series [3] can be described thus: Drug-drug interaction study: effect of elagolix on pharmacokinetics of CYP2B6 substrate bupropion and OH-bupropion; safety. The settings on record: for Tmax / Metabolite to Parent AUCinf Ratio / Metabolite to Parent AUCt Ratio / Metabolite to Parent Cmax Ratio: median; for Tmax: N = 24; for t1/2: harmonic mean; for AUCinf / AUCt / Cmax: mean. As for the experimental part: Subjects: Twenty four (24) adult premenopausal women in generally good health participated in this study.
Elagolix 300 mg BID (as 300 mg immediate release tablets) was administered in the morning and evening on days 1 through 14 in period 2. […] No food was consumed for 2 hours prior to the evening doses of elagolix continuing through 2 hours after. The doses of elagolix were separated by approximately 12 hours.
Individual PK parameters (peak concentration [Cmax] and area under the concentration-time curve [AUC]) were estimated using noncompartmental methods.
Central value ratios (90% confidence intervals) for Cmax, AUC, and metabolite to parent ratios (MPRs) (day 11, period 2 vs. day 1, period 1) were calculated to assess the DDIs. Safety was evaluated through assessment of adverse events, vital signs, electrocardiogram, and clinical laboratory tests.
Adverse events (AEs) were monitored throughout the DDI study. Additional safety evaluations included monitoring of physical examinations, vital signs, electrocardiogram variables, and clinical laboratory values were assessed

The mark [4] stands for this setting: Digoxin 0.5 mg single dose, elagolix 200 mg twice daily ×10 days, N 11.
[5] abbreviates: Bupropion + Elagolix (Day 11, Period 2).
The mark [6] stands for this setting: Bupropion Alone (Day 1, Period 1).
Where [7] appears, read: single 150 mg bupropion, elagolix 300 mg twice daily for 10 preceding days, interval in brackets.
Where [8] appears, read: Midazolam 2 mg single dose, elagolix 150 mg once daily ×13 days, N 11.
Setting [9] is: Midazolam 2 mg single dose, elagolix 300 mg twice daily ×11 days, N 20.
The mark [10] stands for this setting: Rosuvastatin 20 mg once daily, elagolix 300 mg twice daily ×7 days, N 10.

As for `CC(NC(C)(C)C)C(=O)c1cccc(Cl)c1.Cl` (racemic) [bupropion, (±)-1-(3-chlorophenyl)-2-[(1,1-dimethylethyl)amino]-1-propanone hydrochloride], in series [1], the “changes in exposures when co-administered with elagolix” value (“changes in exposures” for short) is on record as “No clinically significant changes”.

Turning to `COc1ccc2nc([S+]([O-])Cc3ncc(CO)c(OC)c3C)[nH]c2c1` (stereo not shown) [5-hydroxyomeprazole], the “decrease in AUCinf with elagolix” value in the series “clinical” is 20-30%. In “clinical” (40 mg), this molecule returned an AUCinf of 1880 ng·h/mL, an AUCt of 1820 ng·h/mL, a Cmax of 491 ng/mL and a t1/2 of 1.57 h. Also, in “clinical” (300 mg), the “decrease in AUCinf with elagolix” value is reported as roughly 25% and the “decrease in Cmax with elagolix” value is recorded as “approximately 30%”.

`C[C@H]1O[C@@H](O[C@H]2[C@@H](O)C[C@H](O[C@H]3[C@@H](O)C[C@H](O[C@H]4CC[C@@]5(C)[C@H](CC[C@@H]6[C@@H]5C[C@@H](O)[C@]5(C)[C@@H](C7=CC(=O)OC7)CC[C@]65O)C4)O[C@@H]3C)O[C@@H]2C)C[C@H](O)[C@@H]1O` [digoxin]: in series [2], the “Effect on Plasma Exposure of Concomitant Drug (AUC)” value (shortened to “Effect on Plasma Exposure”) is reported as “↑ digoxin”. In series [1] (setting [4]), the “Ratio (90% CI) AUC, co-administration with elagolix vs medication alone” value (“Ratio (90% CI) AUC, co-administration” below) is 1.26 and the “Ratio (90% CI) Cmax, co-administration with elagolix vs medication alone” value (from here on “Ratio (90% CI) Cmax, co-administration”) is on record as 1.71.

In the case of `C[C@]12CC[C@@H]3c4ccc(O)cc4CC[C@H]3[C@@H]1CC[C@@H]2O` [estradiol], in the series on CYP3A, the “metabolism by CYP3A” value was “metabolized partially”.

`OC(Cn1cncn1)(Cn1cncn1)c1ccc(F)cc1F` [fluconazole]: the “changes in exposures” value in series [1] was “No clinically significant changes”.

Turning to `C[C@H]1NC(C)(C)CO[C@]1(O)c1cccc(Cl)c1` [hydroxybupropion], the Tmax in series [3] (Bupropion + Elagolix (Day 11, Period 2), elagolix 300 mg BID) was 6.0 h. In series [3] (setting [5]), the t1/2 was 20.5 h, the AUCinf was 17600 ng·h/mL, the AUCt amounted to 17000 ng·h/mL and the Cmax is given as 429 ng/mL. Moreover, in series [3] (setting [5]), the “Metabolite to Parent AUCinf Ratio” value was 15.9, the “Metabolite to Parent AUCt Ratio” value was 15.9 and the “Metabolite to Parent Cmax Ratio” value came to 3.92. Also, in series [3] (Bupropion Alone (Day 1, Period 1), 150 mg single dose), the Tmax is on record as 10.0 h. In series [3] (setting [6]), this molecule showed a t1/2 of 24.7 h, an AUCinf of 16700 ng·h/mL, an AUCt of 15700 ng·h/mL and a Cmax of 323 ng/mL. In series [3] (setting [6]), the “Metabolite to Parent AUCinf Ratio” value amounted to 15.7, the “Metabolite to Parent AUCt Ratio” value worked out at 15.4 and the “Metabolite to Parent Cmax Ratio” value was found to be 3.61. Besides, the “increase in Cmax upon co-administration with elagolix” value in series [3] (elagolix 300 mg BID) turned out to be 32%. Further, in series [3] (elagolix 300 mg BID, minimal changes), the “changes in OH-bupropion/bupropion ratios of Cmax and AUC upon co-administration with elagolix” value is no more than 120%. Also, in series [3] (setting [7]), the “AUCinf ratio, co-administration of bupropion with elagolix vs bupropion alone (A/B)” value is “about 1.063” and the “Cmax ratio, co-administration of bupropion with elagolix vs bupropion alone (A/B)” value was “about 1.317”.

For the molecule `Cc1ncc2n1-c1ccc(Cl)cc1C(c1ccccc1F)=NC2` [midazolam], in series [2], the “Effect on Plasma Exposure” value is “↓ midazolam”. Besides, in series [1] (setting [8]), the “Ratio (90% CI) AUC, co-administration” value was determined as 0.65 and the “Ratio (90% CI) Cmax, co-administration” value came to 0.81. Moreover, in series [1] (setting [9]), the “Ratio (90% CI) AUC, co-administration” value is 0.46 and the “Ratio (90% CI) Cmax, co-administration” value amounted to 0.56.

For the molecule `C#C[C@]1(OC(C)=O)CC[C@H]2[C@@H]3CCC4=CC(=O)CC[C@@H]4[C@H]3CC[C@@]21C` [norethindrone acetate], the “metabolism by CYP3A” value with CYP3A is given as “metabolized partially”.

With `COc1ccc2nc(S(=O)(=O)Cc3ncc(C)c(OC)c3C)[nH]c2c1` [omeprazole sulfone], in the series “clinical” (female), the “M:P AUCinf Ratio, Relative Bioavailability Point Estimate” value is recorded as 1.246; the “M:P AUCt Ratio, Relative Bioavailability Point Estimate” value is on record as 1.497; the “increase in exposures with elagolix” value is roughly 3 fold. Also, in “clinical” (female, 40 mg), the Cmax turned out to be 162 ng/mL; the “M:P AUCinf Ratio, Central Value Reference” value is 0.825; the “M:P AUCt Ratio, Central Value Reference” value was found to be 0.679; the “RAUCinf (metabolite-to-parent AUCinf ratio)” value is listed as 0.85. Further, the “RAUCt (metabolite-to-parent AUCt ratio)” value in “clinical” (female, 40 mg) is listed as 0.76. For the same molecule, in the series “clinical” (female, 300 mg), the “increase in AUCinf with elagolix” value was determined as 2.5 fold, the “increase in Cmax with elagolix” value is 2.7 fold and the “increase in M:P AUCinf ratio with elagolix” value was 25%. The “Cmax and AUCinf values upon co-administration with elagolix (direction of change)” value in “clinical” is given as “increased”.

For the molecule `COc1ccc2[nH]c([S+]([O-])Cc3ncc(C)c(OC)c3C)nc2c1` (stereo not shown) [omeprazole, 5-methoxy-2-[[(4-methoxy3,5-dimethyl-2-pyridinyl)methyl]sulfinyl]-1H-benzimidazole, reference compound], the “Effect on Plasma Exposure” value in series [2] is “↑ omeprazole”. Further, the “decrease in AUCinf with elagolix” value in the series “clinical” (female) is 40%. Moreover, in the series “clinical” (female, 300 mg), the “increase in AUCinf with elagolix” value is 1.8 fold and the “increase in Cmax with elagolix” value was determined as 1.9 fold. Moreover, in “clinical” (female, im), the “increase in exposure (AUCinf) with elagolix” value was 2-2.5 fold. In “clinical”, the “Cmax and AUCinf values upon co-administration with elagolix (direction of change)” value was “increased”.

As to `CC(C)c1nc(N(C)S(C)(=O)=O)nc(-c2ccc(F)cc2)c1/C=C/[C@@H](O)C[C@@H](O)CC(=O)O` [rosuvastatin], in series [2], the “Effect on Plasma Exposure” value was “↓ rosuvastatin”. In addition, in series [1] (setting [10]), the “Ratio (90% CI) AUC, co-administration” value was 0.60 and the “Ratio (90% CI) Cmax, co-administration” value is 0.99.

Regarding `CN[C@H]1CC[C@@H](c2ccc(Cl)c(Cl)c2)c2ccccc21` [sertraline], the “changes in exposures” value in series [1] was “No clinically significant changes”.

Values taken from US11690845B2, “Methods of administering elagolix” (priority 2020, dated 2023).
